# According to ChEMBL document CHEMBL4819125, “Synthesis and anti-proliferation activity of mogrol derivatives bearing quinoline and triazole moieties” (Bioorg Med Chem Lett, 2021):
# Key:
# A549 [1] = assay: Antiproliferative activity against human A549 cells assessed as reduction in cell growth by CCK8 assay; type: functional, cell-based
# A549 [2] = assay: Antiproliferative activity against human A549 cells assessed as reduction in cell growth at 30 uM by CCK8 assay relative to control; type: functional
# NCI-H460 [3] = assay: Antiproliferative activity against human NCI-H460 cells assessed as reduction in cell growth at 30 uM by CCK8 assay relative to control; type: functional
# NCI-H460 [4] = assay: Antiproliferative activity against human NCI-H460 cells assessed as reduction in cell growth by CCK8 assay; type: functional, cell-based
smiles,measurement,setting,value
C[C@H](CCCOC(=O)Cn1cc(-c2ccsc2)nn1)[C@H]1CC[C@@]2(C)[C@@H]3CC=C4[C@@H](CC[C@H](O)C4(C)C)[C@]3(C)[C@H](O)C[C@]12C,IC50,A549 [1],26.1 µM
same,inhibition at 30 µM,A549 [2],90.5%
same,inhibition at 30 µM,NCI-H460 [3],8.3%
C[C@H](CC[C@@H](O)C(C)(C)O)[C@H]1CC[C@@]2(C)[C@@H]3CC=C4[C@@H](Cc5cc6cc(Cl)ccc6nc5C4(C)C)[C@]3(C)C(=O)C[C@]12C,IC50,A549 [1],12.9 µM
same,inhibition at 30 µM,A549 [2],84.1%
same,inhibition at 30 µM,NCI-H460 [3],13.1%
C[C@H](CC[C@@H](O)C(C)(C)O)[C@H]1CC[C@@]2(C)[C@@H]3CC=C4[C@@H](Cc5cc6ccc(Cl)cc6nc5C4(C)C)[C@]3(C)C(=O)C[C@]12C,inhibition at 30 µM,A549 [2],6.68%
same,inhibition at 30 µM,NCI-H460 [3],2.18%
Cc1ccc(-c2cn(CC(=O)OCCC[C@@H](C)[C@H]3CC[C@@]4(C)[C@@H]5CC=C6[C@@H](CC[C@H](O)C6(C)C)[C@]5(C)[C@H](O)C[C@]34C)nn2)cc1,IC50,A549 [1],23.8 µM
same,inhibition at 30 µM,A549 [2],88.4%
same,inhibition at 30 µM,NCI-H460 [3],10.9%
C[C@H](CC[C@@H](O)C(C)(C)O)[C@H]1CC[C@@]2(C)[C@@H]3CC=C4[C@@H](CC[C@H](O)C4(C)C)[C@]3(C)[C@H](OC(=O)Cn3cc(-c4ccccc4)nn3)C[C@]12C,IC50,A549 [1],6.75 µM
same,inhibition at 30 µM,A549 [2],83%
same,inhibition at 30 µM,NCI-H460 [3],44.9%
C[C@H](Cc1cnc2ccc(Cl)cc2c1)[C@H]1CC[C@@]2(C)[C@@H]3CC=C4[C@@H](CC[C@H](O)C4(C)C)[C@]3(C)[C@H](O)C[C@]12C,inhibition at 30 µM,A549 [2],10.6%
same,inhibition at 30 µM,NCI-H460 [3],-12.6%
O=c1[nH]cc(F)c(=O)[nH]1 [FLUOROURACIL],IC50,A549 [1],1.65 µM
same,IC50,NCI-H460 [4],7.03 µM
C[C@H](CC[C@@H](O)C(C)(C)O)[C@H]1CC[C@@]2(C)[C@@H]3CC=C4[C@@H](CC[C@H](O)C4(C)C)[C@]3(C)[C@H](O)C[C@]12C [MOGROL],IC50,A549 [1],27.8 µM
same,inhibition at 30 µM,A549 [2],62.9%
same,inhibition at 30 µM,NCI-H460 [3],-13.2%
same,IC50,NCI-H460 [4],> 100 µM
C[C@H](CC[C@@H](O)C(C)(C)O)[C@H]1CC[C@@]2(C)[C@@H]3CC=C4[C@@H](Cc5cc6ccccc6nc5C4(C)C)[C@]3(C)C(=O)C[C@]12C,IC50,A549 [1],13.8 µM
same,inhibition at 30 µM,A549 [2],94.3%
same,inhibition at 30 µM,NCI-H460 [3],80.2%
same,IC50,NCI-H460 [4],17.1 µM
C[C@H](Cc1cnc2ccccc2c1)[C@H]1CC[C@@]2(C)[C@@H]3CC=C4[C@@H](CC[C@H](O)C4(C)C)[C@]3(C)[C@H](O)C[C@]12C,IC50,A549 [1],19.2 µM
same,inhibition at 30 µM,A549 [2],91.5%
same,inhibition at 30 µM,NCI-H460 [3],69.9%
same,IC50,NCI-H460 [4],24.6 µM
C[C@H](CCCOC(=O)Cn1cc(C2CC2)nn1)[C@H]1CC[C@@]2(C)[C@@H]3CC=C4[C@@H](CC[C@H](O)C4(C)C)[C@]3(C)[C@H](O)C[C@]12C,IC50,A549 [1],17.7 µM
same,inhibition at 30 µM,A549 [2],89.2%
same,inhibition at 30 µM,NCI-H460 [3],6.43%
C[C@H](CC[C@@H](O)C(C)(C)O)[C@H]1CC[C@@]2(C)[C@@H]3CC=C4[C@@H](Cc5cc6ccc(Br)cc6nc5C4(C)C)[C@]3(C)C(=O)C[C@]12C,inhibition at 30 µM,A549 [2],22%
same,inhibition at 30 µM,NCI-H460 [3],1.65%
C[C@H](CC[C@@H](O)C(C)(C)O)[C@H]1CC[C@@]2(C)[C@@H]3CC=C4[C@@H](CC[C@H](O)C4(C)C)[C@]3(C)[C@H](OC(=O)Cn3cc(-c4ccc(C#N)cc4)nn3)C[C@]12C,IC50,A549 [1],5.79 µM
same,inhibition at 30 µM,A549 [2],76.7%
same,inhibition at 30 µM,NCI-H460 [3],20.5%
C[C@H](Cc1cnc2cc(Cl)ccc2c1)[C@H]1CC[C@@]2(C)[C@@H]3CC=C4[C@@H](CC[C@H](O)C4(C)C)[C@]3(C)[C@H](O)C[C@]12C,inhibition at 30 µM,A549 [2],17.4%
same,inhibition at 30 µM,NCI-H460 [3],-1.18%
C[C@H](CC[C@@H](O)C(C)(C)O)[C@H]1CC[C@@]2(C)[C@@H]3CC=C4[C@@H](CC[C@H](O)C4(C)C)[C@]3(C)[C@H](OC(=O)Cn3cc(-c4ccsc4)nn3)C[C@]12C,IC50,A549 [1],6.27 µM
same,inhibition at 30 µM,A549 [2],90.5%
same,inhibition at 30 µM,NCI-H460 [3],44.9%
Cc1ccc(-c2cn(CC(=O)O[C@@H]3C[C@]4(C)[C@@H]([C@H](C)CC[C@@H](O)C(C)(C)O)CC[C@@]4(C)[C@@H]4CC=C5[C@@H](CC[C@H](O)C5(C)C)[C@@]43C)nn2)cc1,IC50,A549 [1],5.96 µM
same,inhibition at 30 µM,A549 [2],77.3%
same,inhibition at 30 µM,NCI-H460 [3],40%
C[C@H](CCCOC(=O)Cn1cc(-c2ccccc2)nn1)[C@H]1CC[C@@]2(C)[C@@H]3CC=C4[C@@H](CC[C@H](O)C4(C)C)[C@]3(C)[C@H](O)C[C@]12C,IC50,A549 [1],22.5 µM
same,inhibition at 30 µM,A549 [2],87.9%
same,inhibition at 30 µM,NCI-H460 [3],7.56%
C[C@H](Cc1cnc2cnccc2c1)[C@H]1CC[C@@]2(C)[C@@H]3CC=C4[C@@H](CC[C@H](O)C4(C)C)[C@]3(C)[C@H](O)C[C@]12C,IC50,A549 [1],18.2 µM
same,inhibition at 30 µM,A549 [2],90.2%
same,inhibition at 30 µM,NCI-H460 [3],25.8%
C[C@H](CC[C@@H](O)C(C)(C)O)[C@H]1CC[C@@]2(C)[C@@H]3CC=C4[C@@H](CC[C@H](O)C4(C)C)[C@]3(C)[C@H](OC(=O)Cn3cc(C4CC4)nn3)C[C@]12C,IC50,A549 [1],19.8 µM
same,inhibition at 30 µM,A549 [2],92.9%
same,inhibition at 30 µM,NCI-H460 [3],34.7%
C[C@H](Cc1cnc2ccc(Br)cc2c1)[C@H]1CC[C@@]2(C)[C@@H]3CC=C4[C@@H](CC[C@H](O)C4(C)C)[C@]3(C)[C@H](O)C[C@]12C,inhibition at 30 µM,A549 [2],53.3%
same,inhibition at 30 µM,NCI-H460 [3],-12.4%
C[C@H](Cc1cnc2cc(Br)ccc2c1)[C@H]1CC[C@@]2(C)[C@@H]3CC=C4[C@@H](CC[C@H](O)C4(C)C)[C@]3(C)[C@H](O)C[C@]12C,inhibition at 30 µM,A549 [2],42.7%
same,inhibition at 30 µM,NCI-H460 [3],0.71%
C[C@H](CC[C@@H](O)C(C)(C)O)[C@H]1CC[C@@]2(C)[C@@H]3CC=C4[C@@H](Cc5cc6ccncc6nc5C4(C)C)[C@]3(C)C(=O)C[C@]12C,IC50,A549 [1],14.3 µM
same,inhibition at 30 µM,A549 [2],95.2%
same,inhibition at 30 µM,NCI-H460 [3],81.1%
same,IC50,NCI-H460 [4],18.3 µM
C[C@H](CC[C@@H](O)C(C)(C)O)[C@H]1CC[C@@]2(C)[C@@H]3CC=C4[C@@H](Cc5cc6cc(Br)ccc6nc5C4(C)C)[C@]3(C)C(=O)C[C@]12C,IC50,A549 [1],13.1 µM
same,inhibition at 30 µM,A549 [2],69.4%
same,inhibition at 30 µM,NCI-H460 [3],17%
